# Read-outs that look alike come from different tables or passages of the source.
# How the values were obtained:
# [1] = system: U87 glioblastoma xenografts; experiment: U87 glioblastoma xenograft in nu/nu mice; assay type: in vivo, Human
# Text: 5×10^6 U87 glioblastoma cells were implanted subcutaneously in immunodeficient nu/nu mice. Treatment started when tumor weight was about 0.15 g (Day 0).
# (§1) The significant differences in pharmacodynamics and safety profile of indibulin make it a strong candidate for development as an anti-cancer drug.
# [2] = system: murine renal cell carcinoma RENCA; experiment: Murine renal cell carcinoma RENCA model; assay type: in vivo, Mouse
# Experimental: 1.5×10^6 RENCA cells were injected into the subcapsular space of the kidney through a flank incision (Day 1). […] On Day 21 mice were sacrificed and weight and volume of primary tumors, weight and number of metastases of the lung and metastasis formation in the abdominal lymph nodes determined. […] TNP-470 has shown anti-tumor activity in different animal models and is well established for its use in RENCA.
# as §1
# [3] = system: purified calf brain tubulin; experiment: Tubulin polymerization, calf brain tubulin; assay type: biochemical, bovine; conditions: FIG. 9, read-out: IC50 of inhibition of tubulin polymerization
# Text: (§2) Tubulin from neuronal tissue is post-translationally modified and the degree of modification increases during neuronal development. Calf brain neuronal tubulin and tubulin from other tissues differ in their post-translational modifications from that of adult bovine brain. […] Tubulin polymerization is given as % over DMSO control.
# [4] = system: MCF-7 ER-positive breast cancer; experiment: Monolayer assay (DNA content by propidium iodide), single agents and indibulin combinations, MCF-7; assay type: cell-based, human
# Experimental: (§3) The monolayer assay determines the in vitro antitumor activity of test compounds and their capacity to inhibit survival and proliferation of established tumor cell lines. These effects can be determined by establishing the number of viable cells based on measuring the DNA content using propidium iodide. […] Between 5,000 and 10,000 cells were seeded in 96 well plates on Day 0 and the compounds were added 1 day later and incubated for 4 days. The activity was assessed by their IC50 and IC70 values.
# (§4) Growth IC50 and IC70 values (Table 2) were determined using XLfit software package, and used to set the concentration ranges and drug ratios for the synergy detection part of the study.
# (§5) Chou-Talalay median effect method was used to quantitatively characterize drug-drug interaction [Chou T. C. Theoretical basis, experimental design, and computerized simulation of synergism and antagonism in drug combination studies. Pharmacol Rev. 2006 September; 58(3):621-81]. […] Mixtures of the drugs at multiples of their single agent IC50's were prepared, as well as serial dilutions of the mixture. Additionally, single agent dose response was determined for the same concentration ranges as used for combination study.
# (§6) The coefficient of interaction (CI(IC50)) at IC50 and coefficient of interaction under optimal experimental concentrations (CI(e)) were determined using CalcuSyn software package (Table 3, tests were performed in quadruplicate, mean values reported). Commonly, experimental values of CI<0.8 are considered synergistic, 0.8<CI<1.2 additive.
# [5] = system: ovarian cancer with brain metastases; experiment: Phase I study, patient with ovarian cancer with brain metastases; assay type: in vivo, human; conditions: 400 mg BID continuous treatment; after 22 days of treatment; person
# Text: (§7) Treatment is ongoing. […] Treatment is ongoing.
# [6] = system: human ovarian xenograft (SK-OV-3); experiment: SK-OV-3 ovarian xenograft; assay type: in vivo; conditions: SKOV-3; 100 mg/kg/d, d. 0, 7, 14; at sacrifice of control group animals
# Text: as §1
# [7] = system: DMBA induced mammary carcinoma; experiment: DMBA induced mammary carcinoma in rats; assay type: in vivo, Rat; conditions: 46.4 mg/kg/d, 2×(3× week), at sacrifice of control group animals
# Text: as §1
# [8] = system: human vulvar squamous cell carcinoma xenograft (A431); experiment: A431 vulvar squamous cell carcinoma xenograft; assay type: in vivo; conditions: 27.5 mg/kg/d, 3×(3× week), at sacrifice of control group animals
# Text: as §1
# SKOV3 (ovarian) = experiment: Monolayer assay (DNA content by propidium iodide), single agents and indibulin combinations, SKOV3; assay type: cell-based, human; conditions: Homo sapiens
# Experimental: as §3, §4, §5, §6
# [9] = system: series of cancer models (RENCA, DMBA, SK-OV-3, PC-3, A431, U 87, MCF-7, A 549); experiment: Series of cancer models in animals (overall statement); assay type: in vivo
# Text: as §1
# [10] = system: MCF7 breast cancer xenografts; experiment: MCF7 breast cancer xenograft; assay type: in vivo, Human; conditions: 38.3 mg/kg/d, 4×(3× week), at sacrifice of control group animals
# Text: as §1
# [11] = system: adult bovine brain tubulin; experiment: Tubulin polymerization, adult bovine brain tubulin; assay type: biochemical; conditions: bovine brain tubulin; at the highest dose tested
# Text: as §2
# papillary thyroid cancer = experiment: Phase I study, patient with papillary thyroid cancer; assay type: in vivo, human; conditions: 400 mg BID continuous treatment
# Text: as §7
# [12] = system: un-biotinylated calf brain tubulin; conditions: G. Bacher, Cancer Res. 61, 2001; cited from earlier work
# A549 NSCLC = experiment: Monolayer assay (DNA content by propidium iodide), single agents and indibulin combinations, A549; assay type: cell-based, human; conditions: for IC50: Homo sapiens
# Experimental: as §3, §4, §5, §6
# [13] = system: axonal microtubules of rat pheochromocytoma (PC12) cells; experiment: Axonal microtubule immunostaining in NGF-differentiated PC12 cells; assay type: cell-based; conditions: PC12 neurites induced by NGF 5-6 days; 24 h treatment at 2×IC50 concentration
# Text: The outgrowth of neurites of PCl2 was induced by NGF for 5-6 days. […] Microtubules within the neurites, were visualized by immunostaining with an antibody recognizing acetylated (axonal) tubulin, leaving the cell bodies unstained.
# [14] = MCF7, indibulin + 5-FU (5FU:indibulin 10.9:1), concentration of the named drug in the combination
# [15] = MCF7, indibulin + paclitaxel (paclitaxel:indibulin 0.27:1), concentration of the named drug in the combination
# [16] = MCF7, indibulin + tamoxifen (tamoxifen:indibulin 100:1), concentration of the named drug in the combination
# [17] = MCF7, indibulin + vinorelbine (vinorelbine:indibulin 0.016:1), concentration of the named drug in the combination
# [18] = A549, single agent (combination study)
smiles,measurement,setting,value
"O=C(Nc1ccncc1)C(=O)c1cn(Cc2ccc(Cl)cc2)c2ccccc12 [Indibulin, N-(pyridin-4-yl)-[1-(4-chlorobenzyl)-indol-3-yl]-glyoxylic acid amide]",Growth Inhibition (%),"[1]; U87, 27.5 mg/kg/d, 3×(3× week), at sacrifice of control group animals",88.8%
same,Growth of U87 glioblastoma xenografts (in words),"[1]; orally administered, s.c. tumors in nu/nu mice, FIG. 11",inhibits growth
same,Growth Inhibition (%),"[2]; RENCA, 17.5 mg/kg/d, d. 1-20(5× week), at sacrifice of control group animals",90%
same,Number of lung metastases,"[2]; oral, daily Day 1-20 (5×/week), Day 21",trend in reduction of number of lung metastases but was not statistically significant
same,Reduction in tumor volume and weight,"[2]; oral, daily Day 1-20 (5×/week), primary tumors on Day 21, FIG. 12",statistically significant
same,IC50,[3],~250 nM
same,IC50,"[4]; Homo sapiens, MCF7, MCF7, single agent (combination study), read-out: Single Agent IC50",0.013 µg/mL
same,Single Agent IC84,"[4]; MCF7, single agent (combination study)",53 ng/mL
same,Combination IC50,[4]; [14],0.005 µg/mL
same,Combination IC60,[4]; [14],0.0028 µg/mL
same,Combination IC50,"[4]; MCF7, indibulin + doxorubicin, concentration of the named drug in the combination",0.011 µg/mL
same,Combination IC50,[4]; [15],0.004 µg/mL
same,Combination IC84,[4]; [15],10 ng/mL
same,Combination IC50,[4]; [16],0.004 µg/mL
same,Combination IC60,[4]; [16],0.0064 µg/mL
same,Combination IC50,[4]; [17],0.008 µg/mL
same,Combination IC60,[4]; [17],0.006 µg/mL
same,Reduction of CA125 level from baseline,[5],11%
same,Growth Inhibition (%),[6],53%
same,Growth Inhibition (%),[7],99.5%
same,Growth Inhibition (%),[8],63%
same,IC50,"SKOV3 (ovarian); SK-OV-3, SKOV3, single agent (combination study), read-out: Single Agent IC50",0.415 µg/mL
same,IC50,"SKOV3 (ovarian); SK-OV-3, SKOV3, indibulin + carboplatin, concentration of the named drug in the combination, read-out: Combination IC50",0.029 µg/mL
same,IC50,"SKOV3 (ovarian); SK-OV-3, SKOV3, indibulin + cisplatin, concentration of the named drug in the combination, read-out: Combination IC50",0.022 µg/mL
same,IC50,"SKOV3 (ovarian); SK-OV-3, SKOV3, indibulin + gemcitabine, concentration of the named drug in the combination, read-out: Combination IC50",0.047 µg/mL
same,Anti-tumor activity in all models,[9]; all models tested,strong and statistically significant anti-tumor activity
same,Neurotoxicity or loss of body weight,[9]; animals at efficacious doses,no signs of neurotoxicity or loss of body weight
same,Growth Inhibition (%),[10],>100%
same,Inhibition of tubulin polymerization,[11],25%
same,Decrease of thyroglobulin level from baseline,papillary thyroid cancer; after 15th day of dosing,34%
same,Decrease of tumor measurements,papillary thyroid cancer; at first assessment,11%
same,Disease status after treatment,papillary thyroid cancer; person,stable disease
same,Competition with 3H-colchicine binding,[12],does not compete
same,Single Agent IC40,A549 NSCLC; [18],0.071 µg/mL
same,Single Agent IC50,A549 NSCLC; [18],0.054 µg/mL
same,Single Agent IC60,A549 NSCLC; [18],0.129 µg/mL
same,Single Agent IC70,A549 NSCLC; [18],0.095 µg/mL
same,Combination IC70,"A549 NSCLC; A549, indibulin + carboplatin (carboplatin:indibulin 303:1), concentration of the named drug in the combination",0.027 µg/mL
same,Combination IC40,"A549 NSCLC; A549, indibulin + erlotinib (erlotinib:indibulin 208:1), concentration of the named drug in the combination",0.021 µg/mL
same,Combination IC60,"A549 NSCLC; A549, indibulin + etoposide, concentration of the named drug in the combination",0.068 µg/mL
same,IC50,"A549 NSCLC; A549, 96 h, A549, single agent, 4 days incubation, read-out: Growth IC50",0.038 µg/mL
same,IC50,"A549 NSCLC; A549, A549, single agent (combination study), read-out: Single Agent IC50",0.092 µg/mL
same,IC50,"A549 NSCLC; A549, A549, indibulin + carboplatin (carboplatin:indibulin 303:1), concentration of the named drug in the combination, read-out: Combination IC50",0.011 µg/mL
same,IC50,"A549 NSCLC; A549, A549, indibulin + erlotinib (erlotinib:indibulin 208:1), concentration of the named drug in the combination, read-out: Combination IC50",0.03 µg/mL
same,Effect on axonal microtubules (acetylated tubulin immunostaining),[13],did not affect axonal microtubules
